Among the data in patent US20170334899A1, “AMINO-SUBSTITUTED ISOTHIAZOLES” (Bayer Pharma Aktiengesellschaft, priority 2014, published 2017) are IC50 values, retold here.

This test addresses T1, catalytic domain of human Bub1 (amino acids 704-1085) (Homo sapiens, UniProt O43683).
T1 construct: catalytic domain of human Bub1 (amino acids 704-1085); His6 (N); made in house; host or cells: insect cells (Hi5)
In words: Bub1 kinase assay (TR-FRET). It is filed as biochemical. Particulars: 10 μM ATP, avg, read-out: Bub1 avg (IC50 [mol/l]). The method, boiled down:
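Readout is the 665/620 nm TR-FRET ratio from anti-phosphoserine antibody, Eu-labelled anti-mouse IgG and streptavidin-XL665, scaled between no-enzyme and uninhibited controls. Reaction: 1 μM biotinylated peptide, 10 μM ATP, 60 min, 22 °C, after 15 min compound preincubation with His6-Bub1 (704-1085, insect-expressed, ~200 ng/ml).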

The structures appear in SMILES notation.

T1 sequence (O43683 704-1085): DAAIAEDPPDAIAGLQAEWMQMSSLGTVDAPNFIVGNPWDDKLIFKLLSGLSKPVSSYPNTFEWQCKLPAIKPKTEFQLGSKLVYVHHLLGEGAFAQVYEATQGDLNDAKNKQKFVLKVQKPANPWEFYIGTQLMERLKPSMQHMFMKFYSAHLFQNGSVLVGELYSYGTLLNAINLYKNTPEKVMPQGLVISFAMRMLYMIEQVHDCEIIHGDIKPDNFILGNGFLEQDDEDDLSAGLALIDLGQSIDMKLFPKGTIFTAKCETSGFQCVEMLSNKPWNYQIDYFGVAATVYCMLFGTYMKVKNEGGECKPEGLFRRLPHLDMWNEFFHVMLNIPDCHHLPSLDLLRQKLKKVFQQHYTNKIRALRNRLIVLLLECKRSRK

`Cc1nsc(Nc2cnc3ccccc3n2)c1C(=O)Nc1cccc(NS(=O)(=O)C2CCCN(C(=O)OCc3ccccc3)C2)c1` (stereo not drawn) [Example 291, benzyl 3-{[3-({[3-methyl-5-(quinoxalin-2-ylamino)-1,2-thiazol-4-yl]carbonyl}amino)phenyl]sulfamoyl} piperidine-1-carboxylate]: the IC50 was above 20 µM.
Consider `Cc1nsc(Nc2cnc3ccccc3n2)c1C(=O)Nc1cccc(NS(=O)(=O)C2CCN(C(=O)OC(C)(C)C)C2)c1` (stereo not drawn) [Example 290, tert-butyl 3-{[3-({[3-methyl-5-(quinoxalin-2-ylamino)-1,2-thiazol-4-yl]carbonyl}amino)phenyl]sulfamoyl} pyrrolidine-1-carboxylate], for which the IC50 is above 20 µM.
To `Cc1nsc(Nc2cnc3ccccc3n2)c1C(=O)Nc1cccc(C(=O)NC(C)C)c1` [Example 253, N-[3-(isopropylcarbamoyl)phenyl]-3-methyl-5-(quinoxalin-2-ylamino)-1,2-thiazole-4-carboxamide] belongs 0.32 µM.
To `Cc1nsc(Nc2cncc(C(F)(F)F)n2)c1C(=O)Nc1ccc(F)c(OC2CCN(CC(F)F)CC2)c1` [Example 268, N-(3-{[1-(2,2-difluoroethyl)piperidin-4-yl]oxy}-4-fluorophenyl)-3-methyl-5-{[6-(trifluoromethyl)pyrazin-2-yl]amino}-1,2-thiazole-4-carboxamide] belongs 19 µM; to `Cc1nsc(Nc2cncc(C(F)(F)F)n2)c1C(=O)Nc1ccc(C(=O)N2CCN(CC(F)F)CC2)cc1` [Example 273, N-(4-{[4-(2,2-difluoroethyl)piperazin-1-yl]carbonyl}phenyl)-3-methyl-5-{[6-(trifluoromethyl)pyrazin-2-yl]amino}-1,2-thiazole-4-carboxamide], above 20 µM.
In the case of `Cc1nsc(Nc2cnc3ccccc3n2)c1C(=O)Nc1cccc(NS(=O)(=O)C2CCN(CC(F)(F)F)C2)c1` (stereo not drawn) [Example 289, 3-methyl-5-(quinoxalin-2-ylamino)-N-[3-({[1-(2,2,2-trifluoroethyl)pyrrolidin-3-yl]sulfonyl}amino)phenyl]-1,2-thiazole-4-carboxamide], the IC50 was above 20 µM.
On to `Cc1nsc(Nc2cncc(C(F)(F)F)n2)c1C(=O)Nc1ccc(C(=O)N2CCN(CCF)CC2)cc1` [Example 274, N-(4-{[4-(2-fluoroethyl)piperazin-1-yl]carbonyl}phenyl)-3-methyl-5-{[6-(trifluoromethyl)pyrazin-2-yl]amino}-1,2-thiazole-4-carboxamide], for which the IC50 is above 20 µM.
On to `Cc1nsc(Nc2cnc3ccccc3n2)c1C(=O)Nc1cccc(C(=O)NC2CC2)c1` [Example 249, N-[3-(cyclopropylcarbamoyl)phenyl]-3-methyl-5-(quinoxalin-2-ylamino)-1,2-thiazole-4-carboxamide], for which the IC50 was determined as 1.2 µM.
As for `Cc1nsc(Nc2cncc(C(F)(F)F)n2)c1C(=O)Nc1ccc(F)c(OC2CCN(CCF)CC2)c1` [Example 269, N-(4-fluoro-3-{[1-(2-fluoroethyl)piperidin-4-yl]oxy}phenyl)-3-methyl-5-{[6-(trifluoromethyl)pyrazin-2-yl]amino}-1,2-thiazole-4-carboxamide], the IC50 was above 20 µM.
Consider `Cc1nsc(Nc2cnc(C(F)(F)F)cn2)c1C(=O)Nc1ccc(F)c(OCC2CCN(C(CF)CF)CC2)c1` [Example 312, N-(3-{[1-(1,3-difluoropropan-2-yl)piperidin-4-yl]methoxy}-4-fluorophenyl)-3-methyl-5-{[5-(trifluoromethyl)pyrazin-2-yl]amino}-1,2-thiazole-4-carboxamide], for which the IC50 is at least 20 µM.
For `Cc1nsc(Nc2cc(C#N)ccn2)c1C(=O)Nc1ccc(OC2CCNCC2)nc1` [Example 24, 5-[(4-Cyanopyridin-2-yl)amino]-3-methyl-N-[6-(piperidin-4-yloxy)pyridin-3-yl]-1,2-thiazole-4-carboxamide], the IC50 was at least 20 µM.
In the case of `Cc1nsc(Nc2cnc(C(F)(F)F)cn2)c1C(=O)Nc1cccc(NC(=O)OC(C)(C)C)c1` [Example 284, 3-tert-butyl (3-{[(3-methyl-5-{[5-(trifluoromethyl)pyrazin-2-yl]amino}-1,2-thiazol-4-yl)carbonyl]amino}phenyl)carbamate], the IC50 was above 20 µM.
As to `Cc1nsc(Nc2cnc(C(F)(F)F)cn2)c1C(=O)Nc1ccc(F)c(OCC2CCN(CCC(F)(F)F)CC2)c1` [Example 311, N-(4-fluoro-3-{[1-(3,3,3-trifluoropropyl)piperidin-4-yl]methoxy}phenyl)-3-methyl-5-{[5-(trifluoromethyl)pyrazin-2-yl]amino}-1,2-thiazole-4-carboxamide], the IC50 was above 20 µM.
Turning to `Cc1nsc(Nc2cnc(C(F)(F)F)cn2)c1C(=O)Nc1ccc(F)c(OCCCN(C)CC(F)F)c1` [Example 301, N-(3-{3-[(2,2-difluoroethyl)(methyl)amino]propoxy}-4-fluorophenyl)-3-methyl-5-{[5-(trifluoromethyl)pyrazin-2-yl]amino}-1,2-thiazole-4-carboxamide], the IC50 was above 20 µM.
As to `Cc1nsc(Nc2cnc3ccccc3n2)c1C(=O)Nc1cccc(NS(=O)(=O)C2CN(CCC(F)(F)F)C2)c1` [Example 288, 3-methyl-5-(quinoxalin-2-ylamino)-N-[3-({[1-(3,3,3-trifluoropropyl)azetidin-3-yl]sulfonyl}amino)phenyl]-1,2-thiazole-4-carboxamide], the IC50 was above 20 µM.
For the compound `Cc1nsc(Nc2cnc(C(F)(F)F)cn2)c1C(=O)Nc1ccc(F)c(OC2CCN(CC(F)(F)F)C2)c1` (stereo not drawn) [Example 315, N-(4-fluoro-3-{[1-(2,2,2-trifluoroethyl)pyrrolidin-3-yl]oxy}phenyl)-3-methyl-5-{[5-(trifluoromethyl)pyrazin-2-yl]amino}-1,2-thiazole-4-carboxamide], the IC50 was at least 20 µM.
On to `Cc1nsc(Nc2cncc(C(F)(F)F)n2)c1C(=O)Nc1ccc(OCCCO)nc1` [Example 278, N-[6-(3-hydroxypropoxy)pyridin-3-yl]-3-methyl-5-{[6-(trifluoromethyl)pyrazin-2-yl]amino}-1,2-thiazole-4-carboxamide], for which the IC50 was above 20 µM.
`Cc1nsc(Nc2cnc(C(F)(F)F)cn2)c1C(=O)Nc1ccc(C(=O)NC2CCN(CC(F)F)CC2)cc1` [Example 259, N-(4-{[1-(2,2-difluoroethyl)piperidin-4-yl]carbamoyl}phenyl)-3-methyl-5-{[5-(trifluoromethyl)pyrazin-2-yl]amino}-1,2-thiazole-4-carboxamide]: the IC50 was above 20 µM.
To `Cc1nsc(Nc2cnc(C(F)(F)F)cn2)c1C(=O)Nc1ccc(OCCCNCC(F)(F)F)nc1` [Example 292, 3-methyl-N-(6-{3-[(2,2,2-trifluoroethyl)amino]propoxy}pyridin-3-yl)-5-{[5-(trifluoromethyl)pyrazin-2-yl]amino}-1,2-thiazole-4-carboxamide] belongs above 20 µM; to `CCN1CCN(C(=O)c2ccc(NC(=O)c3c(C)nsc3Nc3cnc(C(F)(F)F)cn3)cc2)CC1` [Example 261, N-{4-[(4-ethylpiperazin-1-yl)carbonyl]phenyl}-3-methyl-5-{[5-(trifluoromethyl)pyrazin-2-yl]amino}-1,2-thiazole-4-carboxamide], above 20 µM.
Consider `Cc1nsc(Nc2cnc(C(F)(F)F)cn2)c1C(=O)Nc1ccc(OCCCNCCC(F)(F)F)nc1` [Example 294, 3-methyl-5-{[5-(trifluoromethyl)pyrazin-2-yl]amino}-N-(6-{3-[(3,3,3-trifluoropropyl)amino]propoxy}pyridin-3-yl)-1,2-thiazole-4-carboxamide], for which the IC50 was above 20 µM.
Take `Cc1nsc(Nc2cnc(C(F)(F)F)cn2)c1C(=O)Nc1ccc(OCCNCC(F)F)nc1` [Example 305, N-(6-{2-[(2,2-difluoroethyl)amino]ethoxy}pyridin-3-yl)-3-methyl-5-{[5-(trifluoromethyl)pyrazin-2-yl]amino}-1,2-thiazole-4-carboxamide]: the IC50 is 19 µM.
On to `Cc1nsc(Nc2cc(C#N)ccn2)c1C(=O)Nc1ccc(OC2CCN(CC(F)F)CC2)nc1` [Example 263, 5-[(4-cyanopyridin-2-yl)amino]-N-(6-{[1-(2,2-difluoroethyl)piperidin-4-yl]oxy}pyridin-3-yl)-3-methyl-1,2-thiazole-4-carboxamide], for which the IC50 was above 20 µM.
`Cc1nsc(Nc2cncc(C(F)(F)F)n2)c1C(=O)Nc1ccc(C(=O)N2CCN(CC(F)(F)F)CC2)cc1` [Example 272, 3-methyl-N-(4-{[4-(2,2,2-trifluoroethyl)piperazin-1-yl]carbonyl}phenyl)-5-{[6-(trifluoromethyl)pyrazin-2-yl]amino}-1,2-thiazole-4-carboxamide]: the IC50 is above 20 µM.
Take `Cc1nsc(Nc2cnc(C(F)(F)F)cn2)c1C(=O)Nc1ccc(F)c(OC2CCN(CCF)CC2)c1` [Example 266, N-(4-fluoro-3-{[1-(2-fluoroethyl)piperidin-4-yl]oxy}phenyl)-3-methyl-5-{[5-(trifluoromethyl)pyrazin-2-yl]amino}-1,2-thiazole-4-carboxamide]: the IC50 was above 20 µM.
On to `Cc1nsc(Nc2cnc3ccccc3n2)c1C(=O)Nc1cccc(NS(=O)(=O)C2CN(CC(F)(F)F)C2)c1` [Example 285, 3-methyl-5-(quinoxalin-2-ylamino)-N-[3-({[1-(2,2,2-trifluoroethyl)azetidin-3-yl]sulfonyl}amino)phenyl]-1,2-thiazole-4-carboxamide], for which the IC50 was above 20 µM.
`Cc1nsc(Nc2cnc3ccccc3n2)c1C(=O)Nc1cccc(NS(=O)(=O)C2CCN(CCC(F)(F)F)CC2)c1` [Example 283, 3-methyl-5-(quinoxalin-2-ylamino)-N-[3-({[1-(3,3,3-trifluoropropyl)piperidin-4-yl]sulfonyl}amino)phenyl]-1,2-thiazole-4-carboxamide]: the IC50 was above 20 µM.
